# Patent US20120015938A1, “1,4-BENZODIAZEPIN-2-ON DERIVATIVES” (MSD K.K., priority 2009, published 2012)
# Target: T1, Human DGAT1 (Homo sapiens, UniProt O75907)
# T1 construct: made in house; host or cells: Pichia pastoris (printed 'Pichia pastris'), vector pPICZA; membrane fraction
# T1 sequence (O75907 1-488): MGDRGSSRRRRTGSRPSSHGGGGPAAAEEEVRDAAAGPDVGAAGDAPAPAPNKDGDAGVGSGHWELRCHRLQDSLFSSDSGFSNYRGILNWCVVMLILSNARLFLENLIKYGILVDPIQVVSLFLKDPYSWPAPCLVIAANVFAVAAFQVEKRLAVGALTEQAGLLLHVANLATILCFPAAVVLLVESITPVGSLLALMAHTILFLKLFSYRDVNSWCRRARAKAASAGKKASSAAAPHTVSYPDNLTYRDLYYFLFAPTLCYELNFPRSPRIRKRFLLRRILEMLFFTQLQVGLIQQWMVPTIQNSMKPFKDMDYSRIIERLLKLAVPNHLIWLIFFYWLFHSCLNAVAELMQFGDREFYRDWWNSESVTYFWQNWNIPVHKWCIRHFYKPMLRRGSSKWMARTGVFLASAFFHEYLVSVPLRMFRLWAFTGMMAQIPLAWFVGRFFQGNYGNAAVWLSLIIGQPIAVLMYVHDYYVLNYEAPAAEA
# Assay: DGAT1 Inhibitory Activity Test
# Format: biochemical
# Details: DGAT1-expressed yeast membrane fraction, [14C]-oleoyl-CoA, room temperature 30 minutes
# Protocol: Cloning of Human DGAT1 Gene and Expression in Yeast
# Human DGAT1 genes were amplified by PCR using primers described below from human cDNA library (Clontech).
# The amplified human DGAT1 genes were introduced into a yeast expression vector pPICZA (Invitrogen). The resultant expression plasmid was introduced into an yeast (Pichia pastris) by electroporation to produce a recombinant yeast. The recombination yeast was cultured in the presence of 0.5% methanol for 72 hours, and the cells were crushed using glass beads in 10 mM Tris pH 7.5, 250 mM sucrose and 1 mM EDTA, followed by adjusting the membrane fraction by centrifugation to use the adjusted membrane fraction as an enzyme source.
# To the reaction liquid having the following composition: 100 mM Tris pH 7.5, 100 mM MgCl2, 100 mM sucrose, 40 μM dioelin, 15 μM [^14C]-oleoyl-CoA, 0.25 μg of test substance, DGAT1-expressed yeast membrane fraction, was added, and the mixture having a volume of 100 μl was incubated at room temperature for 30 minutes. To the reaction liquid, 100 μl of 2-propanol/heptan/H2O (80:20:2) was added, the mixture was stirred well, followed by adding 200 μl of heptane and further stirring the mixture. After centrifugation, the heptane layer was collected, ethanol/0.1N NaOH/H2O (50:5:45) was added, the mixture was thus stirred, followed by re-centrifuging the mixture and collecting the heptane layer. After exsiccation of the resultant heptane layer, 100 μl of Microscint 0 (PerkinElmer) was added, and the radioactivity was measured with a liquid scintillation counter. The inhibitory activity was calculated from the following formula:
# Inhibition rate=100−(radioactivity in case of addition of test compound−background)/(radioactivity in case of addition of no test compound−background)×100 wherein the background means the radioactivity in case of addition of no membrane fraction.
row,SMILES,IC50
1,"CN1C(=O)C(NC(=O)C(C)(C)NC(=O)c2ccc(F)cc2)N=C(Cc2ccc(OC(F)(F)F)cc2)c2cc(F)ccc21 (single isomer, unassigned) [Example 1 Enantiomer A, 4-fluoro-N-[2-({7-fluoro-1-methyl-2-oxo-5-[4-(trifluoromethoxy)benzyl]-2,3-dihydro-1H-1,4-benzodiazepin-3-yl}amino)-1,1-dimethyl-2-oxoethyl]benzamide]",483 nM
2,"CN1C(=O)C(NC(=O)C(C)(C)NC(=O)c2ccc(F)cc2)N=C(Cc2ccc(OC(F)(F)F)cc2)c2cc(F)ccc21 (single isomer, unassigned) [Example 1 Enantiomer B, 4-fluoro-N-[2-({7-fluoro-1-methyl-2-oxo-5-[4-(trifluoromethoxy)benzyl]-2,3-dihydro-1H-1,4-benzodiazepin-3-yl}amino)-1,1-dimethyl-2-oxoethyl]benzamide]",133 nM
3,"CN1C(=O)C(NC(=O)C(C)(C)NC(=O)c2ccccc2)N=C(Cc2ccc(OC(F)(F)F)cc2)c2cc(F)ccc21 (single isomer, unassigned) [Example 2 Enantiomer A, N-[2-({7-fluoro-1-methyl-2-oxo-5-[4-(trifluoromethoxy)benzyl]-2,3-dihydro-1H-1,4-benzodiazepin 3-yl}amino)-1,1-dimethyl-2-oxoethyl]benzamide]",569 nM
4,"CN1C(=O)C(NC(=O)C(C)(C)NC(=O)c2ccccc2)N=C(Cc2ccc(OC(F)(F)F)cc2)c2cc(F)ccc21 (single isomer, unassigned) [Example 2 Enantiomer B, N-[2-({7-fluoro-1-methyl-2-oxo-5-[4-(trifluoromethoxy)benzyl]-2,3-dihydro-1H-1,4-benzodiazepin 3-yl}amino)-1,1-dimethyl-2-oxoethyl]benzamide]",164 nM
5,"CN1C(=O)C(NC(=O)C(C)(C)NC(=O)c2ccc(F)cc2)N=C(Cc2ccc(OC(F)(F)F)cc2)c2ccccc21 (single isomer, unassigned) [Example 3 Enantiomer A, N-[1,1-dimethyl-2-({1-methyl-2-oxo-5-[4-(trifluoromethoxy)benzyl]-2,3-dihydro-1H-1,4-benzodiazepin-3-yl}amino)-2-oxoethyl]-4-fluorobenzamide]",181 nM
6,"CN1C(=O)C(NC(=O)C(C)(C)NC(=O)c2ccc(F)cc2)N=C(Cc2ccc(OC(F)(F)F)cc2)c2ccccc21 (single isomer, unassigned) [Example 3 Enantiomer B, N-[1,1-dimethyl-2-({1-methyl-2-oxo-5-[4-(trifluoromethoxy)benzyl]-2,3-dihydro-1H-1,4-benzodiazepin-3-yl}amino)-2-oxoethyl]-4-fluorobenzamide]",125 nM
7,"CN1C(=O)C(NC(=O)C(C)(C)NC(=O)c2ccccc2)N=C(Cc2ccc(OC(F)(F)F)cc2)c2ccccc21 (single isomer, unassigned) [Example 4 Enantiomer A, N-[1,1-dimethyl-2-({1-methyl-2-oxo-5-[4-(trifluoromethoxy)benzyl]-2,3-dihydro-1H-1,4-benzodiazepin-3-yl}amino)-2-oxoethyl]benzamide]",308 nM
8,"CN1C(=O)C(NC(=O)C(C)(C)NC(=O)c2ccccc2)N=C(Cc2ccc(OC(F)(F)F)cc2)c2ccccc21 (single isomer, unassigned) [Example 4 Enantiomer B, N-[1,1-dimethyl-2-({1-methyl-2-oxo-5-[4-(trifluoromethoxy)benzyl]-2,3-dihydro-1H-1,4-benzodiazepin-3-yl}amino)-2-oxoethyl]benzamide]",127 nM
